Like-named read-outs stand apart in the source and are kept apart here.
Experiments:
[1] = Storage stability of retinoic acid precursor (RAP) in caprylic capric triglyceride at 45° C, RAP amount by HPLC; assay type: physicochemical; conditions: for Initial RAP Concentration, Week 0 / RAP Concentration, Week 1 / RAP Concentration, Week 4 / RAP Concentration, Week 20: Example 1, caprylic capric triglyceride carrier, storage 45° C, ER 0.35% where present
Protocol: Compositions were prepared with caprylic capric triglyceride as the carrier to 100%. Storage was maintained at 45° C. Assessment of RAP amount in the formulae was achieved via HPLC using ASTM Standards. […]

[2] = as above; assay type: physicochemical; conditions: Example 3; RAP alone, no SBA (ratio —)

Week 4 % Remaining [1]	Week 20 % Remaining [1]	Initial RAP Concentration, Week 0 [1]	RAP Concentration, Week 1 [1]	RAP Concentration, Week 4 [1]	RAP Concentration, Week 20 [1]	Week 4 % Remaining ([1]; 4 week, 0.1 %)	Week 20 % Remaining ([1]; 20 week, 0.1 %)	Week 0 Concentration [2]	Week 1 Concentration [2]	Week 4 Concentration [2]	SMILES	Effect on stability of the RAPs (in words) [1]
–	–	–	–	–	–	–	–	–	–	–	CCc1ccc(O)cc1O [4-ethyl resorcinol]	improves the stability of the RAPs by preventing oxidation
0%	0%	0.36%	0.14%	0%	0%	–	–	–	–	–	COc1ccc(C(=O)COC(=O)\C=C(C)/C=C/C=C(C)/C=C/C2=C(C)CCCC2(C)C)cc1 [Retextra ®, hydroxyanasatil retinoate]	–
–	–	0.1%	0.042%	0.001%	0%	1%	0%	0.1	0.042	0.001	CC1=C(/C=C/C(C)=C/C=C/C(C)=C/CO)C(C)(C)CCC1 [Retinol]	–
84%	0%	0.38%	No	0.32%	0%	–	–	0.38	0.38	0.32	CCC(=O)OC/C=C(C)/C=C/C=C(C)/C=C/C1=C(C)CCCC1(C)C [Retinyl Propionate]	–
